# Laboratory results published in ChEMBL document CHEMBL1201862, “PubChem BioAssay data set” (2004).
#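 Step 1: Grow cells in 96-well plates. Step 2: Expose to compound for 48 hours at 5 concentrations. Step 3: Interpolate endpoints linearly; if unreached, use highest concentration. GI50 = concentration required for 50% inhibition of growth.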 The source made the active and inactive calls. Rule as the data show it: active = GI50 up to about 1.1 µM and inactive = higher.
# Key:
# Assay in all cases: NCI anticancer screen, dose series, 48 h
# SK-MEL-2 = system: SK-MEL-2
# SNB-19 = system: SNB-19
# SF-268 = system: SF-268
# NCI-H522 = system: NCI-H522
# M14 = system: M14
# DLD-1 = system: DLD-1
# SN12C = system: SN12C
# HCT-116 = system: HCT-116
# K562 = system: K562
# EKVX = system: EKVX
# ACHN = system: ACHN
# OVCAR-4 = system: OVCAR-4
# COLO 205 = system: COLO 205
# 786-0 = system: 786-0
# LOX IMVI = system: LOX IMVI
# SF-295 = system: SF-295
# A498 = system: A498
# CAKI-1 = system: CAKI-1
# NCI-H23 = system: NCI-H23
# SK-MEL-28 = system: SK-MEL-28
# NCI-H226 = system: NCI-H226
# MOLT-4 = system: MOLT-4
# U-251 = system: U-251
# OVCAR-8 = system: OVCAR-8
# OVCAR-3 = system: OVCAR-3
# LXFL 529 = system: LXFL 529
# KM12 = system: KM12
# DMS-114 = system: DMS-114
# Malme-3M = system: Malme-3M
# SK-OV-3 = system: SK-OV-3
# M19-MEL = system: M19-MEL
# RPMI-8226 = system: RPMI-8226
# IGROV-1 = system: IGROV-1
# NCI-H460 = system: NCI-H460
# SR = system: SR
# OVCAR-5 = system: OVCAR-5
# HCC 2998 = system: HCC 2998
# HL-60 = system: HL-60
# DMS-273 = system: DMS-273
# CCRF-CEM = system: CCRF-CEM
# SW-620 = system: SW-620
# UACC-62 = system: UACC-62
# SNB-75 = system: SNB-75
# SF-539 = system: SF-539
# HCT-15 = system: HCT-15
# HT-29 = system: HT-29
# A549 = system: A549
# TK-10 = system: TK-10
# UO-31 = system: UO-31
# HOP-62 = system: HOP-62
# UACC-257 = system: UACC-257
# SK-MEL-5 = system: SK-MEL-5
# RXF 393 = system: RXF 393
# HOP-18 = system: HOP-18
# KM-20L2 = system: KM-20L2
# SNB-78 = system: SNB-78
compound,measurement,setting,value
CCOC(=O)C(Cc1ccccc1)NC(=O)c1nc[nH]c1/N=N/N(C)C (stereo not drawn),GI50,SK-MEL-2,> 100 µM (inactive)
same,GI50,SNB-19,> 100 µM (inactive)
same,GI50,SF-268,> 100 µM (inactive)
same,GI50,NCI-H522,> 100 µM (inactive)
same,GI50,M14,> 100 µM (inactive)
same,GI50,DLD-1,> 100 µM (inactive)
same,GI50,SN12C,> 100 µM (inactive)
same,GI50,HCT-116,> 100 µM (inactive)
same,GI50,K562,> 100 µM (inactive)
same,GI50,EKVX,> 100 µM (inactive)
same,GI50,ACHN,> 100 µM (inactive)
same,GI50,OVCAR-4,> 100 µM (inactive)
same,GI50,COLO 205,> 100 µM (inactive)
same,GI50,786-0,> 100 µM (inactive)
same,GI50,LOX IMVI,> 100 µM (inactive)
same,GI50,SF-295,> 100 µM (inactive)
same,GI50,A498,> 100 µM (inactive)
same,GI50,CAKI-1,> 100 µM (inactive)
same,GI50,NCI-H23,> 100 µM (inactive)
same,GI50,SK-MEL-28,> 100 µM (inactive)
same,GI50,NCI-H226,> 100 µM (inactive)
same,GI50,MOLT-4,> 100 µM (inactive)
same,GI50,U-251,> 100 µM (inactive)
same,GI50,OVCAR-8,> 100 µM (inactive)
same,GI50,OVCAR-3,> 100 µM (inactive)
same,GI50,LXFL 529,> 100 µM (inactive)
same,GI50,KM12,> 100 µM (inactive)
same,GI50,DMS-114,> 100 µM (inactive)
same,GI50,Malme-3M,> 100 µM (inactive)
same,GI50,SK-OV-3,> 100 µM (inactive)
same,GI50,M19-MEL,> 100 µM (inactive)
same,GI50,RPMI-8226,> 100 µM (inactive)
same,GI50,IGROV-1,> 100 µM (inactive)
same,GI50,NCI-H460,> 100 µM (inactive)
same,GI50,SR,> 100 µM (inactive)
same,GI50,OVCAR-5,> 100 µM (inactive)
same,GI50,HCC 2998,> 100 µM (inactive)
same,GI50,HL-60,> 100 µM (inactive)
same,GI50,DMS-273,> 100 µM (inactive)
same,GI50,CCRF-CEM,> 100 µM (inactive)
same,GI50,SW-620,> 100 µM (inactive)
same,GI50,UACC-62,> 100 µM (inactive)
same,GI50,SNB-75,> 100 µM (inactive)
same,GI50,SF-539,> 100 µM (inactive)
same,GI50,HCT-15,> 100 µM
same,GI50,HT-29,> 100 µM (inactive)
same,GI50,A549,> 100 µM (inactive)
same,GI50,TK-10,> 10 µM (inactive)
same,GI50,UO-31,> 100 µM (inactive)
same,GI50,HOP-62,> 100 µM (inactive)
same,GI50,UACC-257,> 100 µM (inactive)
same,GI50,SK-MEL-5,> 100 µM (inactive)
O=C1[C@H]2ON(c3ccccc3)C(c3cccc([N+](=O)[O-])c3)[C@H]2C(=O)N1c1ccc(Cc2ccc(N3C(=O)[C@@H]4ON(c5ccccc5)C(c5cccc([N+](=O)[O-])c5)[C@@H]4C3=O)cc2)cc1 (stereo partly drawn),GI50,SK-MEL-2,> 100 µM (inactive)
same,GI50,SNB-19,> 100 µM (inactive)
same,GI50,SF-268,> 100 µM (inactive)
same,GI50,NCI-H522,> 100 µM (inactive)
same,GI50,M14,21.6 µM (inactive)
same,GI50,DLD-1,> 100 µM (inactive)
same,GI50,SN12C,> 100 µM (inactive)
same,GI50,HCT-116,> 100 µM (inactive)
same,GI50,K562,> 100 µM (inactive)
same,GI50,EKVX,> 100 µM (inactive)
same,GI50,ACHN,> 100 µM (inactive)
same,GI50,OVCAR-4,> 100 µM (inactive)
same,GI50,RXF 393,> 100 µM (inactive)
same,GI50,COLO 205,42.3 µM (inactive)
same,GI50,786-0,> 100 µM (inactive)
same,GI50,LOX IMVI,> 100 µM (inactive)
same,GI50,HOP-18,> 100 µM (inactive)
same,GI50,SF-295,> 100 µM (inactive)
same,GI50,A498,36.5 µM (inactive)
same,GI50,KM-20L2,> 100 µM (inactive)
same,GI50,CAKI-1,38.6 µM (inactive)
same,GI50,NCI-H23,> 100 µM (inactive)
same,GI50,SNB-78,> 100 µM (inactive)
same,GI50,SK-MEL-28,> 100 µM (inactive)
same,GI50,NCI-H226,> 100 µM (inactive)
same,GI50,MOLT-4,> 100 µM (inactive)
same,GI50,U-251,> 100 µM (inactive)
same,GI50,OVCAR-8,> 100 µM (inactive)
same,GI50,OVCAR-3,> 100 µM (inactive)
same,GI50,LXFL 529,> 100 µM (inactive)
same,GI50,KM12,> 100 µM (inactive)
same,GI50,DMS-114,> 100 µM (inactive)
same,GI50,Malme-3M,75 µM (inactive)
same,GI50,SK-OV-3,> 100 µM (inactive)
same,GI50,M19-MEL,> 100 µM (inactive)
same,GI50,RPMI-8226,> 100 µM (inactive)
same,GI50,IGROV-1,> 100 µM (inactive)
same,GI50,NCI-H460,> 100 µM (inactive)
same,GI50,SR,> 100 µM (inactive)
same,GI50,OVCAR-5,> 100 µM (inactive)
same,GI50,HCC 2998,> 100 µM (inactive)
same,GI50,HL-60,> 100 µM (inactive)
same,GI50,DMS-273,> 100 µM (inactive)
same,GI50,CCRF-CEM,> 100 µM (inactive)
same,GI50,SW-620,> 100 µM (inactive)
same,GI50,UACC-62,47.4 µM (inactive)
same,GI50,SNB-75,> 100 µM (inactive)
same,GI50,SF-539,> 100 µM (inactive)
same,GI50,HCT-15,> 100 µM
same,GI50,HT-29,> 100 µM (inactive)
same,GI50,A549,> 100 µM (inactive)
same,GI50,TK-10,> 100 µM (inactive)
same,GI50,UO-31,> 100 µM (inactive)
same,GI50,HOP-62,> 100 µM (inactive)
same,GI50,UACC-257,> 100 µM (inactive)
same,GI50,SK-MEL-5,43.9 µM (inactive)
